# Data published in patent US20090221596A1, “Substtituted aryl oximes” (priority 2006, published 2009).
# System: Spodoptera frugiperda
# Test: Spodoptera frugiperda test (spray treatment)
# Format: in vivo
# Details: foliar, 168 h, 500 g a. i./ha, 7 d, sprayed maize leaf discs, army worm caterpillars, read-out: % 7 d (activity; 100% = all caterpillars killed)
# From the text: An appropriate preparation of active compound is produced by mixing 1 part by weight of active compound with the stated amounts of solvent and emulsifier and diluting the concentrate to the desired concentration using emulsifier-containing water.
# Maize leaf discs (Zea mays) are sprayed with a preparation of active compound at the desired concentration and after they have dried off they are populated with caterpillars of the army worm (Spodoptera frugiperda).
# After the desired time the activity is measured in %. Here 100% means that all of the caterpillars have been killed; 0% means that no caterpillar has been killed.
row,SMILES,pest or weed control at 500 g/ha [%]
1,COc1c(Cl)cc(OCC=C(Cl)Cl)cc1/C(C)=N/OCCCc1ccc(F)cc1 [Example 42],100
2,COc1c(Cl)cc(OCC=C(Cl)Cl)cc1/C(C)=N/OCCCCOc1ccc(C(F)(F)F)cn1 [Example 22],100
3,COc1c(Cl)cc(OCC=C(Cl)Cl)cc1/C(C)=N/OCc1ccc(F)c(Oc2ccccc2)c1 [Example 30],100
4,COc1c(Cl)cc(OCC=C(Cl)Cl)cc1/C(C)=N/OCCCCOc1c(Cl)cc(C(F)(F)F)cc1Cl [Example 24],100
5,COc1c(Cl)cc(OCC=C(Cl)Cl)cc1/C(C)=N/OCCc1ccc(NC(=O)C2(C)CC2)cc1 [Example 40],100
6,COc1c(Cl)cc(OCC=C(Cl)Cl)cc1/C(C)=N/OC(C)c1ccccc1 (centres unmarked) [Example 45],83
7,COc1c(Cl)cc(OCC=C(Cl)Cl)cc1/C(C)=N/OCCc1ccc(NC(=O)OC(C)(C)C)cc1 [Example 41],100
8,COc1c(Cl)cc(OCC=C(Cl)Cl)cc1/C(C)=N/OCc1ccc(OC(F)(F)F)cc1 [Example 29],100
9,COc1c(Cl)cc(OCC=C(Cl)Cl)cc1/C(C)=N/OCCc1ccc([N+](=O)[O-])cc1 [Example 39],100
10,COc1c(Cl)cc(OCC=C(Cl)Cl)cc1/C(C)=N/OCc1ccc(Oc2ccc(SC)cc2)cc1 [Example 49],100
11,COc1c(Cl)cc(OCC=C(Cl)Cl)cc1/C(C)=N/OCCCCOc1ncc(C(F)(F)F)cc1Cl [Example 23],100
12,COc1c(Cl)cc(OCC=C(Cl)Cl)cc1/C(C)=N/OCCOc1ccc(C(F)(F)F)cn1 [Example 21],100

# System: Phaedon cochleariae
# Test: Phaedon test (spray treatment)
# Format: in vivo
# Details: 500 g a. i./ha, sprayed Chinese cabbage leaves, mustard beetle larvae
# From the text: [table] An appropriate preparation of active compound is produced by mixing 1 part by weight of active compound with the stated amounts of solvent and emulsifier and diluting the concentrate to the desired concentration using emulsifier-containing water. Chinese cabbage leaves (Brassica pekinensis) are sprayed with a preparation of active compound at the desired concentration and after they have dried off they are populated with larvae of the mustard beetle (Phaedon cochleariae). After the desired time the activity is measured in %.
row,SMILES,% 7 d (activity; 100% = all beetle larvae killed) [%]
1,"COc1c(Cl)cc(OCC=C(Cl)Cl)cc1C(=NO)C(C)C (racemic) [Example 14, 1-[3-Chloro-5-(3,3-dichloroallyloxy)-2-methoxyphenyl]-2-methylpropan-1-one oxime]",100

# System: Aedes Aegypti
# Test: Aedes Aegypti test
# Format: in vivo
# Details: 20 g a. i./ha, third larval stage (L3)
# Experimental: An appropriate preparation of active compound is produced by mixing the active compound with the stated amounts of solvent and diluting the concentrate to the desired concentration with water.
# The Aedsae aegypti larvae (third larval stage, L3) are treated with a preparation of active compound at the desired concentration.
# After the desired time the activity is measured in %. Here 100%, means that all of the Aedsae aegypti have been killed; 0% means that no Aedsae aegypti have been killed, and -1 denotes that no evaluation was possible.
row,SMILES,% 2 d (activity; 100% = all Aedes aegypti killed) [%]
1,"COc1c(Cl)cc(OCC=C(Cl)Cl)cc1C(=NO)C(C)C (racemic) [Example 14, 1-[3-Chloro-5-(3,3-dichloroallyloxy)-2-methoxyphenyl]-2-methylpropan-1-one oxime]",80
